Among the data in ChEMBL document CHEMBL1144313, “Synthesis of ring-substituted 4-aminoquinolines and evaluation of their antimalarial activities” (Bioorg Med Chem Lett, 2005) are EC50 values, retold here.

What all share (format): functional, organism-based
Test [1] relates to Plasmodium falciparum. The experiment in a line: Effective concentration for Plasmodium falciparum 3D7.
Test [2] deals with Plasmodium falciparum. Kind of test: Effective concentration against Plasmodium falciparum W2.
Test [3] deals with Plasmodium falciparum. The experiment in a line: Effective concentration for Plasmodium falciparum W2.

The EC50 is the midpoint of the concentration-response curve. As to `CCN(CC)CCCC(C)Nc1c2ccc(Cl)cc2nc2ccc(OC)cc12` (stereo in doubt; form 2) [QUINACRINE], the EC50 in test [1] is 8 nM; in test [2] it was 32 nM.
Turning to `CCN(CC)CCCNc1ccnc2ccc(OC(F)(F)F)cc12`, the values for the EC50 in test [3] and in test [1] (Plasmodium falciparum) were 102 nM and 82 nM, respectively.
On to `CCN(CC)CCCC(C)Nc1ccnc2ccc(OC(F)(F)F)cc12` (stereo unspecified), for which the response in test [1] (Plasmodium falciparum) was half-maximal at 62 nM (EC50).
In the case of `CCN(CC)CCCC(C)Nc1ccnc2ccc(C(F)(F)F)cc12` (stereo unspecified), the concentration giving a half-maximal response (EC50) in test [3] was found to be 290 nM; in test [1] (Plasmodium falciparum), 51 nM.
In the same order, the values of `CCN(CC)CCCC(C)Nc1ccnc2cc(Cl)c(C)cc12` (stereo unspecified) are 270 nM and 32 nM.
In the case of `CCN(CC)CCCNc1ccnc2cc(Oc3ccccc3)ccc12`, the EC50 in test [3] was determined as 71 nM; in test [1] (Plasmodium falciparum) it was 34 nM.
On the same counts, the results for `CCN(CC)CCCNc1ccnc2ccc(C(F)(F)F)cc12` are 125 nM and 90 nM.
`CCN(CC)CCCC(C)Nc1c2ccc(Cl)cc2nc2ccc(OC)cc12` (stereo in doubt; form 1) [QUINACRINE]: the EC50 came to 5 nM in test [1] (Plasmodium falciparum) and 8 nM in test [2].
Consider `CCN(CC)CCCNc1ccnc2cc(Cl)ccc12`, for which the EC50 in test [3] is 23 nM; in test [1] (Plasmodium falciparum) it was 2 nM.
In the same order, the values of `CCN(CC)CCCNc1ccnc2cc(C(F)(F)F)ccc12` are 62 nM and 33 nM.
On the same counts, the results for `CCN(CC)CCCNc1ccnc2cc(Cl)c(C)cc12` are 50 nM and 9 nM.
